From patent US8440853B2, “Ester compound and use thereof” (Sumitomo Chemical Company, Limited, priority 2010, dated 2013)

Legend:
Format in all cases: in vivo
[1] = tested on: German cockroaches (Blattella germanica); assay: Knock-down test, oil solution sprayed on German cockroaches (Test Example 2); details: adult German cockroaches, 0.1% (w/v) oil solution, 1.5 ml sprayed
Experimental: Zero point one (0.1) part of the compound of the present inventions (1), (2),(3) and (5) was dissolved in 10 parts of isopropyl alcohol and the solution was mixed with 89.9 parts of deodorized kerosene to prepare a 0.1% (w/v) oil solution.
Ten adult German cockroaches (Blattella germanica, 5 males and 5 females) were released in a test container (diameter 8.75 cm, 7.5 cm high, the bottom face is made of 16 mesh metallic wire), the inner face on which butter was applied, and the container was set at the bottom of a test chamber (bottom face: 46 cm×46 cm, height: 70 cm).
Each 1.5 ml of the oil solution of the compound of the present invention (1), (2), (3) and (5) was sprayed using a spray gun at a pressure of 0.4 kg/cm^2 from 60 cm higher than the upper face of the container. Thirty seconds after the spraying, the container was pulled out from the chamber. Two minutes after spraying, the number of knocked-down cockroaches was counted and a knock-down ratio was determined (repeated once). A knocked-down ratio was calculated by the following equation. Knocked-down ratio (%)=(Number of knocked-down cockroaches/Number of test cockroaches)×100 The results (2 minutes after spraying) are shown in Table 2.

[2] = tested on: houseflies (Musca domestica); assay: Knock-down test, oil solution sprayed into glass chamber with houseflies (Test Example 4); details: adult houseflies, 0.00625% (w/v) oil solution, 0.7 ml sprayed into 70 cm cubic glass chamber
Experimental: Zero point zero zero six two five(0.00625) part of the compound of the present invention (1), (3) and (4) was dissolved in 10 parts of isopropyl alcohol, and the solution was mixed with 89.99375 parts of deodorized kerosene to prepare a 0.00625% (w/v) oil solution.
Ten adult houseflies (Musca domestica) were released in a cubic glass chamber having each side of 70 cm, and 0.7 ml of the oil solution of the compound of the present invention (1), (3) and (4) was sprayed into the chamber through a small window on the side of the chamber using a spraying gun at a pressure of 0.9 kg/cm^2. Seven minutes after spraying, the number of knocked-down flies was counted and a knock-down ratio was determined. A knocked-down ratio was calculated by the following equation. Knocked-down ratio (%)=(Number of knocked-down flies/Number of test flies)×100

[3] = tested on: common mosquitoes (Culex pipens pallens); assay: Knock-down test, oil solution sprayed into glass chamber with common mosquitoes (Test Example 3); details: adult female common mosquitoes, 0.00625% (w/v) oil solution sprayed into 70 cm cubic glass chamber
Experimental: Zero point zero zero six two five(0.00625) part of the compound of the present invention (1) was dissolved in 10 parts of isopropyl alcohol, and the solution was mixed with 89.99375 parts of deodorized kerosene to prepare a 0.00625% (w/v) oil solution.
Ten adult female common mosquitoes (Culex pipens pallens) were released in a cubic glass chamber having each side of 70 cm. The oil solution of the compound of the present invention (1) was sprayed into the chamber through a small window on the side of the chamber using a spraying gun at a pressure of 0.9 kg/cm^2. Ten minutes after spraying, the number of knocked-down mosquitoes was counted and a knock-down ratio was determined. A knocked-down ratio was calculated by the following equation. Knocked-down ratio (%)=(Number of knocked-down mosquitoes/Number of test mosquitoes)×100

[4] = tested on: American cockroaches (Periplaneta Americana); assay: Knock-down test, oil solution sprayed on American cockroaches (Test Example 1); details: adult American cockroaches, 0.1% (w/v) oil solution, 1.5 ml sprayed
Experimental: Zero point one (0.1) part of the compound of the present inventions (1) was dissolved in 10 parts of isopropyl alcohol and the solution was mixed with 89.9 parts of deodorized kerosene to prepare a 0.1% (w/v) oil solution.
Six adult American cockroaches (Periplaneta Americana, 3 males and 3 females) were released in a test container (diameter 12.5 cm, 10 cm high, the bottom face is made of 16 mesh metallic wire), the inner face on which butter was applied, and the container was set at the bottom of a test chamber (bottom face: 46 cm×46 cm, height: 70 cm). One point five (1.5) ml of the oil solution of the compound of the present invention (1) was sprayed using a spray gun at a pressure of 0.4 kg/cm^2 from 60 cm higher than the upper face of the container. Thirty seconds after the spraying, the container was pulled out from the chamber. Ten minutes after spraying, the number of knocked-down cockroaches was counted and a knock-down ratio was determined (repeated twice). The knocked-down ratio was calculated by the following equation. Knocked-down ratio (%)=(Number of knocked-down cockroaches/Number of test cockroaches)×100

Structure (SMILES)	Knock-down ratio (%) 2 minutes after spraying [1] [%]	Knock-down ratio (%) 7 minutes after spraying [2] [%]	Knock-down ratio (%) 10 minutes after spraying [3] [%]	Knock-down ratio (%) 10 minutes after spraying [4] [%]
CCSC(C#N)=C[C@@H]1[C@@H](C(=O)OCc2c(F)c(F)c(C)c(F)c2F)C1(C)C (relative stereo) [compound of the present invention (5), 4-methyl-2,3,5,6-tetrafluorobenzyl=(1R)-trans-3-[(1EZ)-2-cyano-2-(ethylthio)ethenyl]-2,2-dimethylcyclopropane carboxylate]	100			
COCc1c(F)c(F)c(COC(=O)[C@@H]2[C@@H](/C=C(\C#N)SC)C2(C)C)c(F)c1F [compound of the present invention (1), 4-methoxymethyl-2,3,5,6-tetrafluorobenzyl=(1R)-trans-3-[(1E)-2-cyano-2-(methylthio)ethenyl]-2,2-dimethylcyclopropane carboxylate]	100	100	94	100
CCCCSC(C#N)=C[C@@H]1[C@@H](C(=O)OCc2c(F)c(F)c(COC)c(F)c2F)C1(C)C [compound of the present invention (2), 4-methoxymethyl-2,3,5,6-tetrafluorobenzyl=(1R)-trans-3-[(1EZ)-2-cyano-2-(butylthio)ethenyl]-2,2-dimethylcyclopropane carboxylate]	100			
CCSC(C#N)=C[C@@H]1[C@@H](C(=O)OCc2c(F)c(F)c(COC)c(F)c2F)C1(C)C [compound of the present invention (3), 4-methoxymethyl-2,3,5,6-tetrafluorobenzyl=(1R)-trans-3-[(1EZ)-2-cyano-2-(ethylthio)ethenyl]-2,2-dimethylcyclopropane carboxylate]	100	95		
